Data: patent US9128088B2 (priority 2008, dated 2015)
In brackets after ≈: the same amount, converted by molar mass.

Experiments:
Assay in all cases: microbe, parasite or virus in culture
[1] = test system: M. smegmatis mc^2155; format: cell-based, Mycobacterium smegmatis; conditions: Mycolicibacterium smegmatis
[2] = test system: M. bovis BCG; format: cell-based; conditions: Mycobacterium tuberculosis variant bovis BCG
[3] = test system: M. tuberculosis H37Rv; format: cell-based; conditions: Mycobacterium tuberculosis

For `NNC(=O)c1ccncc1` [Isoniazid, isoniazid], the MIC [1] was 16 µg/mL (≈ 117 µM), the MIC [2] was 0.05 µg/mL (≈ 0.365 µM) and the MIC [3] was 0.05 µg/mL (≈ 0.365 µM).
